Data taken from US7579356B2, “Thia-tetraazaacenaphthylene kinase inhibitors” (Janssen Pharmaceutica NV, priority 2005, dated 2009).

Legend:
BT474 breast carcinoma = assay: Cell Proliferation Inhibition Assay, BT474 (14C-thymidine); assay type: cell-based; conditions: Homo sapiens, BT-474, C14 method
Description: (§1) Cell Proliferation Inhibition Assay
(§2) The ability of a test compound to inhibit unregulated cell proliferation may be determined by measuring incorporation of ^14C-labelled thymidine into newly synthesized DNA within cell lines derived from carcinomas originating from several tissues. Accordingly, the effect of a test compound on proliferation of cells with a variety of phenotypes may be determined.
(§3) Carcinoma cell lines used include the HeLa cervical adenocarcinoma from the American Type Culture Collection (ATCC Cat. #CCL2), A375 malignant melanoma (ATCC Cat. #CRL-1619), HCT-116 colon carcinoma (ATCC Cat. #CCL-247), SKBR3 breast carcinoma (ATCC Cat. #HTB-30) and BT474 breast carcinoma (ATCC Cat. #HTB-20).
(§4) The carcinoma cells were trypsinized and counted. The cells (3000-8000 count) were added to each well of a 96-well CytoStar tissue culture treated scintillating microplate (Amersham #RPNQ0160) in complete medium (100 μL) and the plate was then incubated in complete medium for 24 hrs at 37° C. in an inert atmosphere containing 5% CO2.
(§5) Test compound (1 μL) in 100% DMSO was added to the plate test-wells with DMSO only added to control-wells. The plate was incubated in complete medium for a second 24 hr period at 37° C. in an atmosphere containing 5% CO2.
(§6) An aliquot of a solution of Methyl ^14C-thymidine (56 mC/mmol) (NEN #NEC568 or AMersham #CFA532) and complete medium (20 uL to provide 0.2 μCl/well) was then added to each well and the plate was incubated for a third 24 hr period at 37° C. in an atmosphere containing 5% CO2.
(§7) The plate contents were then discarded, the plate washed twice with PBS (200 μL) and then PBS (200 μL) was added to each well. The plate was sealed and the degree of methyl ^14C-thymidine incorporation was quantified on a Packard Top Count.
(§8) Cell proliferation of the Hela cell line was measured using the ATP-Lite method as described in the ATP Lite Kit (Perkin-Elmer Kit Number 6106941) or the C^14 method as described above. Cell proliferation of the other cell lines was measured using the C^14 method.

[1] = test system: HeLa cervical adenocarcinoma; assay: Cell Proliferation Inhibition Assay, Hela (ATP Lite); assay type: cell-based; conditions: Homo sapiens, ATP-Lite method
Description: as §1, §2, §3, §4, §5, §8

SKBR3 breast carcinoma = assay: Cell Proliferation Inhibition Assay, SKBR3 (14C-thymidine); assay type: cell-based; conditions: Homo sapiens, SK-BR-3, C14 method
Description: as §1, §2, §3, §4, §5, §6, §7, §8

HER-4 = target: T1, HER-4 (Homo sapiens, UniProt Q15303); assay: HER-4 Kinase Assay; assay type: biochemical
T1 construct: His6 with thrombin site (N); purchased Proqinase (Freiburg, Germany)
T1 sequence (Q15303 676-1307): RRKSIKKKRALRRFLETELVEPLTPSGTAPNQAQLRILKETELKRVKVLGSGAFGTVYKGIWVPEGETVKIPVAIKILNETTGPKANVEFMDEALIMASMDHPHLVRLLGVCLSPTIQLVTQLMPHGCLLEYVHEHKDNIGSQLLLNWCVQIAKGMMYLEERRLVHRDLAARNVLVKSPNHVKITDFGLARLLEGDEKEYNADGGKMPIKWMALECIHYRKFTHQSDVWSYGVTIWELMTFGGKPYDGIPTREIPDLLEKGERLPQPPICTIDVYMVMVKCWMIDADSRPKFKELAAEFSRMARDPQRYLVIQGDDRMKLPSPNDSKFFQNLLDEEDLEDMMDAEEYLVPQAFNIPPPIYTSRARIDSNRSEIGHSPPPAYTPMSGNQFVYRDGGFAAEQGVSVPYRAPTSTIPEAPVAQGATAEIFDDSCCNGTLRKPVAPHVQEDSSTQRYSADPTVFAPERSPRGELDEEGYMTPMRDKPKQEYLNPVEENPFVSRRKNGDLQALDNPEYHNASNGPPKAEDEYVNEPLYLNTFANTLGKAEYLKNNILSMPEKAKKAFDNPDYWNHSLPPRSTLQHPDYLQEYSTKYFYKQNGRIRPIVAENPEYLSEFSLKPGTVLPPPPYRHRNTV
Experimental: The HER-4 kinase used was purified at Proqinase (Freiburg, Germany) from a construct that consisted of a fusion of GST (Glutathione-S-Transferase), HIS6-Thrombin and the nucleotides encoding amino acids 676 to 1307 of HER-4 (Accession NM 005235).
A mixture of a 10× kinase reaction buffer (600 mM Hepes at pH 7.5, 30 mM Magnesium Chloride, 0.03 mM Sodium Vanadate and 500 μg/mL PEG 20,000), DTT (1.2 mM final from a 10 mM) stock), ATP (1 μM from a 10 mM stock), biotinylated polyGluTyr (1.5 ng/μL final from stock of 1 μg/μL) prepared by Upstate Biotechnologies, Lake Placid, N.Y.), Manganese Chloride (3 mM final from a 1 M stock), γ-^33P-ATP (10 μCl/mL stock) and water (70 μL/well) was added to each well of a Streptavidin Flashplate (Cat. # SMP103, NEN, Boston, Mass.).
Test compound stock (1 μL) was added to the appropriate wells. Diluted GST HER-4 kinase (6.7 ng/μL diluted into 50 mM Tris-HCl at pH 8.0 and 0.1% bovine serum albumin) (30 μL) was added (total volume of 200 ng/well) to initiate the reactions.
The reaction plates were incubated at 30° C. for 1 hr. The reaction was terminated by aspirating the reaction mixture from the plate wells and washing the wells three times with a 1×PBS stop buffer (300 μL) and 100 mM EDTA. After the final wash, the same stop buffer (200 μL) was again added to the wells. The plates were then sealed and read on the TopCount scintillation counter.
For a series of test concentrations, the IC50 was derived by graphing percent inhibition against the log of the concentrations tested for a given compound.

[2] = test system: Human epidermoid A431 carcinoma; assay: In Vivo Models - Inhibition of Tumor Growth, A431; conditions: 100 mg/kg, oral daily for 30 days, athymic mice
Experimental: In Vivo Models—Inhibition of Tumor Growth
The ability of test compounds to inhibit unregulated growth of human tumor cells in vivo was evaluated by implanting human tumor cells into the hindflank of athymic mice, administering a test compound and then quantifying any change in tumor size.
Human epidermoid A431 carcinoma, N87 cells and BT474 cells were implanted subcutaneously into the hindflank of female athymic mice (Charles River) and allowed to grow for 6-10 days. After a measurable tumor was established (as determined by baseline caliper measurement), the animal was administered an oral dose of the test compound daily for a period of 30 days. Tumor size was measured every five days and the degree of inhibition was determined by comparing drug-treated animals to vehicle-treated animals.
Variations of this method are intended to include intraperitoneal injection or intravenous infusion as the route of administration and administration of the test compound either alone or in a combination therapy.
The inhibition of tumor growth values are shown in Table 8 at various test concentrations, as indicated. For compounds with multiple values at one test concentration, each value represents a separate assay result.

| SMILES | IC50 (BT474 breast carcinoma) [µM] | IC50 [1] [µM] | IC50 (SKBR3 breast carcinoma) [µM] | IC50 (HER-4) [µM] | percent inhibition A431 [2] [%] |
| --- | --- | --- | --- | --- | --- |
| O=C(Nc1ccc(CN2CCOCC2)cc1)c1sc2ncnc3c2c1NC(=O)N3c1cccc(Br)c1 [Cpd 36, 5-(3-bromo-phenyl)-4-oxo-4,5-dihydro-3H-1-thia-3,5,6,8-tetraaza-acenaphthylene-2-carboxylic acid (4-morpholin-4-ylmethyl-phenyl)-amide] | ≥ 100 | 100 | 100 | – | – |
| O=C(O)c1sc2ncnc3c2c1NC(=O)N3c1ccc(OCc2ccccn2)c(Cl)c1 [Cpd 38, 5-[3-chloro-4-(pyridin-2-ylmethoxy)-phenyl]-4-oxo-4,5-dihydro-3H-1-thia-3,5,6,8-tetraaza-acenaphthylene-2-carboxylic acid] | ≥ 100 | 100 | 100 | – | – |
| COc1ccc(NC(=O)c2sc3ncnc4c3c2NC(=O)N4c2ccc(OCc3ccccn3)c(Cl)c2)cc1OC [Cpd 48, 5-[3-chloro-4-(pyridin-2-ylmethoxy)-phenyl]-4-oxo-4,5-dihydro-3H-1-thia-3,5,6,8-tetraaza-acenaphthylene-2-carboxylic acid (3,4-dimethoxy-phenyl)-amide] | ≥ 10 | 100 | 100 | – | – |
| O=C(Nc1ccc(CN2CCOCC2)cc1)c1sc2ncnc3c2c1NC(=O)N3c1ccc(OCc2ccccn2)c(Cl)c1 [Cpd 52, 5-[3-chloro-4-(pyridin-2-ylmethoxy)-phenyl]-4-oxo-4,5-dihydro-3H-1-thia-3,5,6,8-tetraaza-acenaphthylene-2-carboxylic acid (4-morpholin-4-ylmethyl-phenyl)-amide] | 5.98 | 27 | 2.61 | – | – |
| O=C(Nc1ccc(NCCCN2CCOCC2)nc1)c1sc2ncnc3c2c1NC(=O)N3c1cccc(Br)c1 [Cpd 64, 5-(3-bromo-phenyl)-4-oxo-4,5-dihydro-3H-1-thia-3,5,6,8-tetraaza-acenaphthylene-2-carboxylic acid [6-(3-morpholin-4-yl-propylamino)-pyridin-3-yl]-amide] | ≥ 10 | 10 | 100 | – | – |
| O=C(Nc1ccc(CN2CCCCC2)cc1)c1sc2ncnc3c2c1NC(=O)N3c1ccc(Oc2ccccc2)cc1 [Cpd 96, 4-oxo-5-(4-phenoxy-phenyl)-4,5-dihydro-3H-1-thia-3,5,6,8-tetraaza-acenaphthylene-2-carboxylic acid (4-piperidin-1-ylmethyl-phenyl)-amide] | – | – | – | 0.018 | – |
| O=C(Nc1ccc(CN2CCOCC2)cc1)c1sc2ncnc3c2c1NC(=O)N3c1ccc(Oc2ccccc2)cc1 [Cpd 97, 4-oxo-5-(4-phenoxy-phenyl)-4,5-dihydro-3H-1-thia-3,5,6,8-tetraaza-acenaphthylene-2-carboxylic acid (4-morpholin-4-ylmethyl-phenyl)-amide] | – | – | – | 0.099 | – |
| CN1CCN(Cc2ccc(NC(=O)c3sc4ncnc5c4c3NC(=O)N5c3ccc(Oc4ccccc4)cc3)cc2)CC1 [Cpd 98, 4-oxo-5-(4-phenoxy-phenyl)-4,5-dihydro-3H-1-thia-3,5,6,8-tetraaza-acenaphthylene-2-carboxylic acid [4-(4-methyl-piperazin-1-ylmethyl)-phenyl]-amide] | – | – | – | 0.081 | – |
| O=C(Nc1ccc(CN2CCCCC2)cc1)c1sc2ncnc3c2c1NC(=O)N3c1ccc(Sc2ccccc2)cc1 [Cpd 169, 4-oxo-5-(4-phenylsulfanyl-phenyl)-4,5-dihydro-3H-1-thia-3,5,6,8-tetraaza-acenaphthylene-2-carboxylic acid (4-piperidin-1-ylmethyl-phenyl)-amide] | 0.383 | 4.28 | 0.144 | 0.03 | 55.4 |
| O=C(Nc1ccc(CN2CCOCC2)cc1)c1sc2ncnc3c2c1NC(=O)N3c1ccc(Sc2ccccc2)cc1 [Cpd 178, 4-oxo-5-(4-phenylsulfanyl-phenyl)-4,5-dihydro-3H-1-thia-3,5,6,8-tetraaza-acenaphthylene-2-carboxylic acid (4-morpholin-4-ylmethyl-phenyl)-amide] | 0.158 | 53.4 | 0.292 | 0.126 | – |
